Bridge positions count the residues as written; N and C are the ends. Square brackets hold non-standard residues; d marks the D form. Peptide text beside a SMILES is read from it. I, II: the chains in the order shown. Dap = NC[C@H](N)C(=O)O; Ahx = NCCCCCC(=O)O
Assays:
[1] = tested on: TNF-α production by unstimulated dTHP-1 macrophages; experiment: TNFα induction by peptides alone in macrophages; assay type: cell-based, human; settings: 2 µM peptide, 4 h, no endotoxin stimulation, versus unstimulated cells
Experimental: The endotoxin-neutralizing capacity of the peptides was assessed by measuring tumor necrosis factor-alpha (TNF-α) production by dTHP-1 macrophages. dTHP-1 macrophages were stimulated with either lipopolysaccharide (LPS; E. coli O111:B4; 5 ng/mL, Sigma-Aldrich) or UV-inactivated S. aureus JAR060131 (MOI 2; as described in Section 5.2), in the presence or absence of one or 2 µM peptides. Cells were cultured in serum-free RPMI and incubated for 4 h at 37 °C with 5% CO2. Positive controls consisted of cells stimulated with LPS or UV-S. aureus without peptide treatment (no treatment, NT), and unstimulated cells served as negative controls. After stimulation, cell supernatants were collected, and cytokine levels of TNF-α were quantified using human ELISA kits (R&D Systems, USA) according to the manufacturer’s instructions. Each condition was tested in triplicate.

[2] = tested on: S. aureus RN4220 (mCherry) in dTHP-1 macrophages; experiment: Intracellular bacterial killing in macrophages; assay type: cell-based, Staphylococcus aureus; settings: 24 h pre-treatment at 1 µM and 2 µM, MOI 2, CFU after lysis, versus no treatment
Experimental: Human monocytes (THP-1; TIB-202; ATCC) were cultured in RPMI 1,640 medium (Gibco) supplemented with 10% FBS. For differentiation into macrophage-like cells (dTHP-1), THP-1 monocytes were seeded in 96-well plates at 3 × 10^4 cells/well (100 µL) in RPMI supplemented with 50 ng/mL phorbol 12-myristate 13-acetate (PMA; Sigma-Aldrich), and incubated for 48 h. The protocol for intracellular killing was adapted from Tang et al. ([Tang et al., 2015]) with modifications. After differentiation, dTHP-1 cells were pre-treated with one or 2 µM peptide solutions in fresh RPMI for 24 h. Subsequently peptides were removed by washing three times with PBS. An mCherry-expressing S. aureus strain, prepared as described in Section 5.2, was used. This strain is efficiently internalized by macrophages ([Cuypers et al., 2024]). Bacteria were added to dTHP-1 cells at a multiplicity of infection (MOI) of 2:1 and incubated for 45 min at 37 °C with 5% CO2 for phagocytosis. Extracellular bacteria were then removed by washing the wells three times with 60 µL PBS, followed by a final wash with 200 µL PBS.dTHP-1 cells were either lysed immediately to quantify the number of intracellular bacteria, after phagocytosis (T = 0 h) or were incubated for 24 h (T = 24 h) in RPMI supplemented with 10 μg/mL gentamicin (Sigma-Aldrich) to inhibit extracellular bacterial growth (in both peptide-treated and control dTHP-1 cells). Internalized bacteria were quantified after lysing the cells with 0.025% Triton X-100 in PBS for 15 min. Lysates were serially diluted (both at 0 h and 24 h) and plated onto BA for CFU enumeration to assess intracellular bacterial survival.

[3] = tested on: Staphylococcus aureus JAR060131; assay type: cell-based; settings: JAR060131, 18 h
Experimental: (§1) Bactericidal activity was assessed as previously described ([Breij et al., 2018]). Briefly, mid-logarithmic phase bacterial cultures were diluted in RPMI to 1 × 10^7 CFU/mL. For fungicidal assays, fungal cultures were prepared in RPMI supplemented with 1% glucose (Merck) and diluted to 2–5 × 10^5 CFU/mL. For each condition, 10 µL of the suspension was added to 90 µL of peptide-containing RPMI or RPMI supplemented with 50% (v/v) pooled human plasma (hereafter referred to as 50% plasma; final bacterial concentration 1 × 10^6 CFU/mL, final fungal concentration 2–5 × 10^4 CFU/mL. Human plasma from four healthy volunteers (Sanquin, Netherlands) was pooled, and stored at −20 °C until use. Peptides were tested similarly for fungicidal activity, after 18 h of incubation at 37 °C with shaking (120 rpm) under humidified conditions, bacterial and fungal survival was determined by plating 10 µL aliquots onto BA plates. Assays were performed in duplicate in round-bottom polypropylene microtiter plates (Costar) and repeated independently three times. Untreated controls included bacteria exposed to RPMI alone or RPMI with 50% plasma. Bactericidal and fungicidal activity was expressed as the lethal concentration 99.9% (LC99.9), defined as the lowest peptide concentration causing ≥99.9% reduction in numbers of CFU compared to the initial inoculum.

[4] = tested on: Enterococcus faecium LUH15122; assay type: cell-based; settings: LUH15122, 18 h
Experimental: as §1

[5] = tested on: primary human venous endothelial cells (HUVECs); experiment: In vitro angiogenesis (tube formation) assay; assay type: cell-based; settings: 4 h; for Number of tubular networks formed: 1 µM peptide, Matrigel, versus untreated control
Experimental: Primary human venous endothelial cells (HUVECs; CSC 2V0) were used to evaluate the in vitro angiogenic potential of peptides using a tube formation assay, adapted from Arnaoutova and Kleinman ([Arnaoutova and Kleinman, 2010]). Cells were cultured in low-serum endothelial cell growth medium 2 (2% v/v; Promo Cell). Briefly, 96-well plates were coated with 50 µL/well of phenol red-free, growth factor-reduced basement membrane matrix (Matrigel; Corning), and incubated at 37 °C for 1 h to allow gelation. […] Then, 100 µL of cell suspension (1.5 × 10^4 cells/well) was added to the Matrigel-coated wells in triplicate and incubated at 37 °C, 5% CO2 for 8 h. Tube formation was monitored using the IncuCyte S3 live-cell imaging system (Sartorius) with bright-field microscopy. Images were captured hourly, and the 4-h time point (corresponding to optimal tube formation) was used for analysis. The number of capillary-like structures was quantified using the “Angiogenesis Analyzer” plugin in ImageJ ([Carpentier et al., 2020]). Each peptide condition was tested in triplicate and repeated three times using different Matrigel batches to account for batch-to-batch variability.

A. baumannii RUH875 = experiment: Bactericidal (time-kill) kinetics; assay type: cell-based, Acinetobacter baumannii; settings: for Time to complete killing: 3.75 µM peptide
Experimental: (§2) Time-kill kinetics were evaluated against S. aureus JAR060131 and A. baumannii RUH875. Mid-logarithmic phase bacterial cultures were diluted to a final concentration of 1 × 10^6 CFU/mL in PBS. Bacteria were incubated with 0.5-, 2-, and 4-fold the LC99.9. Assays were conducted in polypropylene tubes (Micronics) with a total volume of 500 µL. Control samples consisted of bacteria incubated in PBS alone. At 1, 5, 30, and 120 min, 50 µL samples were collected and immediately added to 50 µL of 0.05% (v/v) sodium polyanethol sulfonate (SPS; Sigma-Aldrich) in PBS to neutralize residual peptide activity ([Dankert et al., 1995]). Viable bacterial counts were determined by plating 10 µL of serial 10-fold dilutions onto BA plates. Colonies were counted after 24 h of incubation at 37 °C. All conditions were performed in triplicate.

S. aureus JAR060131 = experiment: Bactericidal (time-kill) kinetics; assay type: cell-based, Staphylococcus aureus; settings: for Time to complete bacterial eradication: all tested concentrations (0.94, 1.88, 3.75 µM); for Log reduction in CFU: within 5 min at 3.75 µM
Experimental: as §2

Structure (SMILES): N=C(N)NCCC[C@H](NC(=O)[C@H](Cc1c[nH]c2ccccc12)NC(=O)[C@H](CCC(N)=O)NC(=O)[C@H](Cc1c[nH]c2ccccc12)NC(=O)[C@H](CCCNC(=N)N)NC(=O)[C@@H](N)CCCNC(=N)N)C(=O)NC[C@H](NC(=O)[C@H](CCCNC(=N)N)NC(=O)[C@H](Cc1c[nH]c2ccccc12)NC(=O)[C@H](CCC(N)=O)NC(=O)[C@H](Cc1c[nH]c2ccccc12)NC(=O)[C@H](CCCNC(=N)N)NC(=O)[C@@H](N)CCCNC(=N)N)C(=O)NCCCCCC(=O)N[C@@H](CSSC[C@H](NC(=O)CCCCCNC(=O)[C@H](CNC(=O)[C@H](CCCNC(=N)N)NC(=O)[C@H](Cc1c[nH]c2ccccc12)NC(=O)[C@H](CCC(N)=O)NC(=O)[C@H](Cc1c[nH]c2ccccc12)NC(=O)[C@H](CCCNC(=N)N)NC(=O)[C@@H](N)CCCNC(=N)N)NC(=O)[C@H](CCCNC(=N)N)NC(=O)[C@H](Cc1c[nH]c2ccccc12)NC(=O)[C@H](CCC(N)=O)NC(=O)[C@H](Cc1c[nH]c2ccccc12)NC(=O)[C@H](CCCNC(=N)N)NC(=O)[C@@H](N)CCCNC(=N)N)C(N)=O)C(N)=O [LBT-1] (I: H-RRWQWR[Dap][Ahx]C-NH2 / II: H-RRWQWR[Dap][Ahx]C-NH2 / III: H-RRWQWR / IV: H-RRWQWR; amide I:7-III:C, II:7-IV:C; disulfide I:9-II:9; N-terminus and C-terminus assumed)
- TNFα induction by peptide alone [1]: minimal but significant
- Macrophage reduction of intracellular S. aureus burden 24 h post-phagocytosis [2]: significantly enhanced
- LC99.9 [3]: 0.47 µM
- LC99.9 [4]: 0.94 µM
- Number of tubular networks formed [5]: significantly increasing the number of networks
- Concentration at which tube formation peaked ([5]; concentration series 0.5–3 µM): 2 µM
- Tube formation at 3 µM ([5]; concentration series 0.5–3 µM): declined
- Time to complete killing (A. baumannii RUH875): ≤ 30 min
- Log reduction in CFU (A. baumannii RUH875; within 1 min at 3.75 µM): > 3 log
- Time to complete bacterial eradication (S. aureus JAR060131): up to 120 min
- Log reduction in CFU (S. aureus JAR060131): > 3 log

Structure (SMILES): N=C(N)NCCC[C@H](NC(=O)[C@H](Cc1c[nH]c2ccccc12)NC(=O)[C@H](CCC(N)=O)NC(=O)[C@H](Cc1c[nH]c2ccccc12)NC(=O)[C@H](CCCNC(=N)N)NC(=O)[C@@H](N)CCCNC(=N)N)C(=O)NCCCC[C@H](NC(=O)[C@H](CCCNC(=N)N)NC(=O)[C@H](Cc1c[nH]c2ccccc12)NC(=O)[C@H](CCC(N)=O)NC(=O)[C@H](Cc1c[nH]c2ccccc12)NC(=O)[C@H](CCCNC(=N)N)NC(=O)[C@@H](N)CCCNC(=N)N)C(=O)NCCCCCC(=O)N[C@@H](CSSC[C@H](NC(=O)CCCCCNC(=O)[C@H](CCCCNC(=O)[C@H](CCCNC(=N)N)NC(=O)[C@H](Cc1c[nH]c2ccccc12)NC(=O)[C@H](CCC(N)=O)NC(=O)[C@H](Cc1c[nH]c2ccccc12)NC(=O)[C@H](CCCNC(=N)N)NC(=O)[C@@H](N)CCCNC(=N)N)NC(=O)[C@H](CCCNC(=N)N)NC(=O)[C@H](Cc1c[nH]c2ccccc12)NC(=O)[C@H](CCC(N)=O)NC(=O)[C@H](Cc1c[nH]c2ccccc12)NC(=O)[C@H](CCCNC(=N)N)NC(=O)[C@@H](N)CCCNC(=N)N)C(N)=O)C(N)=O [LBT] (I: H-RRWQWRK[Ahx]C-NH2 / II: H-RRWQWRK[Ahx]C-NH2 / III: H-RRWQWR / IV: H-RRWQWR; amide I:7-III:C, II:7-IV:C; disulfide I:9-II:9; N-terminus and C-terminus assumed)
- Macrophage reduction of intracellular S. aureus burden 24 h post-phagocytosis [2]: significantly enhanced
- LC99.9 [3]: 0.47 µM
- Number of tubular networks formed [5]: enhanced tube formation
- Time to complete killing (A. baumannii RUH875): 120 min
- Time to complete bacterial eradication (S. aureus JAR060131): up to 120 min
- Log reduction in CFU (S. aureus JAR060131): > 3 log

From PMC12705620 (Frontiers in Pharmacology, 2025)
